# Assay results reported in patent publication US20190134005A1 (BioMarin Pharmaceutical Inc., priority 2016, published 2019).
# Target: T1, human CGT (Homo sapiens, UniProt Q16880)
# T1 sequence (Q16880 21-541): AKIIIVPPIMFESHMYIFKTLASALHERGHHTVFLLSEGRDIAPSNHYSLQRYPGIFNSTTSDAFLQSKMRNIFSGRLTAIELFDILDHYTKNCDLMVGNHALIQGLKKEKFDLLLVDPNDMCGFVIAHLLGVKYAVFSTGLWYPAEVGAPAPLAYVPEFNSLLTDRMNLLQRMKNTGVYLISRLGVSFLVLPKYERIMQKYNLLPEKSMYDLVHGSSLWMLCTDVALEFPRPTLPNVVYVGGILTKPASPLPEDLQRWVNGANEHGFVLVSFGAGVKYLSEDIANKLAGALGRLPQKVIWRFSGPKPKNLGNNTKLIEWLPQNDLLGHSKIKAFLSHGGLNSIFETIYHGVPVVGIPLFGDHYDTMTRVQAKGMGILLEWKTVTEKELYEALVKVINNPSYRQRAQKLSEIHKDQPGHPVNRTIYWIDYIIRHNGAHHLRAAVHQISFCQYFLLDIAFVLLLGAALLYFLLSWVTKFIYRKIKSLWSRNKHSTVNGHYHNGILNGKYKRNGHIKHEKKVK
# Experiment: Assay 1: CGT Enzymatic Assay (RapidFire/MS/MS, 0.01% Tween 80)
# Type: biochemical
# Conditions: Table 1, Compounds of Formula (I) and Formula (II); CGT enzymatic assay, C6-NBD-dihydro-galactosylceramide readout; read-out: IC50
row,IC50 [nM],SMILES
1,< 1000,"N#Cc1ccc(N2C(=O)N(c3ccc(Br)cc3)C(O)(c3cccc(OC(F)(F)F)c3)C23CCC3)cc1 (stereo not drawn) [Compound 292, 4-(7-(4-bromophenyl)-8-hydroxy-6-oxo-8-(3-(trifluoromethoxy)phenyl)-5,7-diazaspiro[3.4]octan-5-yl)benzonitrile]"
2,< 1000,"Cc1ccc(N2C(=O)N(c3ccc(C)cc3)C(O)(c3cccc(OC(F)F)c3)C23COC3)cc1 (stereo not drawn) [Compound 290, 8-(3-(difluoromethoxy)phenyl)-8-hydroxy-5,7-di-p-tolyl-2-oxa-5,7-diazaspiro[3.4]octan-6-one]"
3,< 1000,"CC[C@]1(C)N(c2ccc(C#N)cc2)C(=O)N(c2ccc(C#N)cc2)C1(O)c1cccc(OC(F)(F)F)c1 (stereo partly drawn) [Example 319-2, 4′-((4S)-4-ethyl-5-hydroxy-4-methyl-2-oxo-5-(3-(trifluoromethoxy)phenyl)imidazolidine-1,3-diyl)dibenzonitrile]"
4,< 1000,"N#Cc1ccc(N2C(=O)N(c3ccccc3)C(O)(c3cccc(OC(F)(F)F)c3)C23CCC3)cc1 (stereo not drawn) [Example 336, 4-(8-hydroxy-6-oxo-7-phenyl-8-(3-(trifluoromethoxy)phenyl)-5,7-diazaspiro[3.4]octan-5-yl)benzonitrile]"
5,< 1000,"N#Cc1ccc(N2C(=O)N(c3ccc(C#N)cc3)C(O)(c3cccc(OC(F)(F)F)c3)C23COC3)cc1 (stereo not drawn) [Compound 275, 4,4′-(8-hydroxy-6-oxo-8-(3-(trifluoromethoxy)phenyl)-2-oxa-5,7-diazaspiro[3.4]octane-5,7-diyl)dibenzonitrile]"

# Same assay, conditions: Table 1, Compounds of Formula (I) and Formula (II); CGT enzymatic assay; read-out: IC50
row,SMILES,IC50 [nM]
1,"O=C1N(c2ccc(C(F)(F)F)cc2)CC(O)(c2ccccc2)N1c1ccc(C(F)(F)F)cc1 (stereo not drawn) [Example 15, 4-hydroxy-4-phenyl-1,3-bis(4-(trifluoromethyl)phenyl)imidazolidin-2-one]",> 50000
2,"O=C1N(c2ccc(Br)cc2)CC(O)(c2cccnc2)N1c1ccc(Br)cc1 (stereo not drawn) [Compound 52, 1,3-bis(4-bromophenyl)-4-hydroxy-4-(pyridin-3-yl)imidazolidin-2-one]",10000 to 50000
3,"CC(C)C1(c2cccc(C#N)c2)C(O)N(c2ccc(Br)cc2)C(=O)N1c1ccc(Br)cc1 (stereo not drawn) [Example 232, 3-(1,3-bis(4-bromophenyl)-5-hydroxy-4-isopropyl-2-oxoimidazolidin-4-yl)benzonitrile]",1000 to 10000
4,"CCC[C@H]1N(c2ccc(Br)cc2)C(=O)N(c2ccc(Br)cc2)C1(O)c1cccc(CC)c1 (stereo partly drawn) [Compound 88-2, (5R)-1,3-bis(4-bromophenyl)-4-(3-ethylphenyl)-4-hydroxy-5-propylimidazolidin-2-one]",< 1000
5,"CC[C@]1(C)C(c2cccc(OC(F)(F)F)c2)N(c2ccc(C#N)cc2)C(=O)N1c1ccc(C#N)cc1 (stereo partly drawn) [Example 51-1, 4,4′-((4R)-4-ethyl-4-methyl-2-oxo-5-(3-(trifluoromethoxy)phenyl)imidazolidine-1,3-diyl)dibenzonitrile]",1000 to 10000
6,"C[C@@H]1N(c2ccc(F)cc2)C(=O)N(c2ccc(F)cc2)C1(O)c1cccc(OC(F)(F)F)c1 (stereo partly drawn) [Compound 130-1, (5S)-1,3-bis(4-fluorophenyl)-4-hydroxy-5-methyl-4-(3-(trifluoromethoxy)phenyl)imidazolidin-2-one]",< 1000
7,"COC(=O)C1(O)[C@@H](C)N(c2ccc(Br)cc2)C(=O)N1c1ccc(Br)cc1 (single isomer, unassigned) [Compound 84-2]",> 50000
8,"O=C1N(c2ccc(Cl)cc2F)C(=O)C(O)(c2ccccc2)N1c1ccc(Cl)cc1F (stereo not drawn) [Compound 155, 1,3-bis(4-chloro-2-fluorophenyl)-5-hydroxy-5-phenylimidazolidine-2,4-dione]",> 50000
9,"CCCc1c(CCC)n(-c2ccc(Br)cc2)c(=O)n1-c1ccc(Br)cc1 [Example 22, 1,3-bis(4-bromophenyl)-4,5-dipropyl-1,3-dihydro-2H-imidazol-2-one]",> 50000
10,"O=C1N(c2ccc(Br)cc2)CC(O)(c2ccccc2)N1c1ccccc1 (stereo not drawn) [Example 28, 1-(4-bromophenyl)-4-hydroxy-3,4-diphenylimidazolidin-2-one]",10000 to 50000
11,"CC(C)c1ccc(C2(O)C(=O)N(c3ccccc3)C(=O)N2c2ccccc2)cc1 (stereo not drawn) [Compound 153, 5-hydroxy-5-(4-isopropylphenyl)-1,3-diphenylimidazolidine-2,4-dione]",> 50000
12,"C[C@H]1N(c2ccc(F)cc2)C(=O)N(c2ccc(F)cc2)C1(O)c1cccc(OC(F)(F)F)c1 (stereo partly drawn) [Compound 130-2, (5R)-1,3-bis(4-fluorophenyl)-4-hydroxy-5-methyl-4-(3-(trifluoromethoxy)phenyl)imidazolidin-2-one]",< 1000
13,"O=C1N(c2ccc(Br)cc2)CC(O)(c2cccs2)N1c1ccc(Br)cc1 (stereo not drawn) [Example 7, 1,3-bis(4-bromophenyl)-4-hydroxy-4-(thiophen-2-yl)imidazolidin-2-one]",1000 to 10000

# Next, values leading:
row,IC50 [nM],SMILES
1,< 1000,"C[C@H]1N(c2ccc(Cl)cc2)C(=O)N(c2ccc(Cl)cc2)C1(O)c1cccc(OC(F)(F)F)c1 (stereo partly drawn) [Compound 129-2, (5R)-1,3-bis(4-chlorophenyl)-4-hydroxy-5-methyl-4-(3-(trifluoromethoxy)phenyl)imidazolidin-2-one]"
2,< 1000,"O=C1N(c2ccc(Cl)cc2)[C@H](C2CC2)C(O)(c2cccc(OC(F)F)c2)N1c1ccc(Cl)cc1 (stereo partly drawn) [Compound 233-2, (5R)-1,3-bis(4-chlorophenyl)-5-cyclopropyl-4-(3-(difluoromethoxy)phenyl)-4-hydroxyimidazolidin-2-one]"
3,< 1000,"CCc1c(-c2ccccc2)n(-c2ccc(Br)cc2)c(=O)n1-c1ccc(Br)cc1 [Compound 264, 1,3-bis(4-bromophenyl)-4-ethyl-5-phenyl-1,3-dihydro-2H-imidazol-2-one]"
4,< 1000,"O=C1N(c2ccc(Cl)cc2)C2(CC2)C(O)(c2cccc(OC(F)(F)F)c2)N1c1ccc(Cl)cc1 (stereo not drawn) [Example 224, 4,6-bis(4-chlorophenyl)-7-hydroxy-7-(3-(trifluoromethoxy)phenyl)-4,6-diazaspiro[2.4]heptan-5-one]"
5,1000 to 10000,"Cc1cccc(C2(O)CN(c3ccc(Cl)cc3)C(=O)N2c2ccc(Cl)cc2)c1 (stereo not drawn) [Example 34, 1,3-bis(4-chlorophenyl)-4-hydroxy-4-(m-tolyl)imidazolidin-2-one]"
6,1000 to 10000,"O=C1N(c2ccc(Cl)cc2)CC(O)(c2cc(Cl)cc(Br)c2)N1c1ccc(Cl)cc1 (stereo not drawn) [Compound 98, 4-(3-bromo-5-chlorophenyl)-1,3-bis(4-chlorophenyl)-4-hydroxyimidazolidin-2-one]"
7,< 1000,"N#Cc1cccc(-c2c(C3CC3)n(-c3ccc(Cl)cc3)c(=O)n2-c2ccc(Cl)cc2)c1 [Example 48, 3-(1,3-bis(4-chlorophenyl)-5-cyclopropyl-2-oxo-2,3-dihydro-1H-imidazol-4-yl)benzonitrile]"
8,< 1000,"CCC1N(c2ccc(Cl)cc2)C(=O)N(c2ccc(Cl)cc2)C1(O)c1cccc(OC(F)(F)F)c1 (stereo in doubt) [Compound 82-1, (5S)-1,3-bis(4-chlorophenyl)-5-ethyl-4-hydroxy-4-(3-(trifluoromethoxy)phenyl)imidazolidin-2-one]"
9,< 1000,"N#Cc1cccc(C2(O)N(c3ccc(Cl)cc3)C(=O)N(c3ccc(Cl)cc3)C23CCCC3)c1 (stereo not drawn) [Compound 135, 3-(1,3-bis(4-chlorophenyl)-4-hydroxy-2-oxo-1,3-diazaspiro[4.4]nonan-4-yl)benzonitrile]"
10,< 1000,"CC[C@@H]1N(c2ccc(Cl)cc2)C(=O)N(c2ccc(Cl)cc2)C1(O)c1cccc(Cl)c1 (stereo partly drawn) [Compound 81-1, (5S)-4-(3-chlorophenyl)-1,3-bis(4-chlorophenyl)-5-ethyl-4-hydroxyimidazolidin-2-one]"
11,< 1000,Cc1cccc(C2(O)[C@H](C)N(c3ccc(Cl)cc3)C(=O)N2c2ccc(Cl)cc2)c1 (stereo partly drawn) [Example 36-1]
12,< 1000,"C[C@H]1N(c2ccc(Cl)cc2)C(=O)N(c2ccc(Cl)cc2)C1(O)c1cccc(C#N)c1 (single isomer, unassigned) [Compound 99-2]"
13,1000 to 10000,"O=C1N(c2ccc(Cl)cc2)[C@@H]([C@@H]2CCCO2)C(O)(c2cccc(Cl)c2)N1c1ccc(Cl)cc1 (single isomer, unassigned) [Compound 117-1]"
14,< 1000,"CCC[C@H]1N(c2ccc(Cl)cc2)C(=O)N(c2ccc(Cl)cc2)C1(O)c1cccc(OC(F)(F)F)c1 (stereo partly drawn) [Compound 91-2, (5R)-1,3-bis(4-chlorophenyl)-4-hydroxy-5-propyl-4-(3-(trifluoromethoxy)phenyl)imidazolidin-2-one]"
15,< 1000,"C[C@@H]1N(c2ccc(Cl)cc2)C(=O)N(c2ccc(Cl)cc2)C1(O)c1cccc(Cl)c1 (single isomer, unassigned) [Compound 62-1]"
16,> 50000,"COc1cccc([C@@]2(C)C(O)N(c3ccc(Br)cc3)C(=O)N2c2ccc(Br)cc2)c1 (single isomer, unassigned) [Compound 126-1]"
17,> 50000,"Cc1cccc(-c2cn(-c3ccc(Cl)cc3)c(=O)n2-c2ccc(Cl)cc2)c1 [Compound 259, 1,3-bis(4-chlorophenyl)-4-(m-tolyl)-1,3-dihydro-2H-imidazol-2-one]"
18,< 1000,"C[C@@]1(c2cccc(C(F)(F)F)c2)C(O)N(c2ccc(Br)cc2)C(=O)N1c1ccc(Br)cc1 (stereo partly drawn) [Example 219-2, (4R)-1,3-bis(4-bromophenyl)-5-hydroxy-4-methyl-4-(3-(trifluoromethyl)phenyl)imidazolidin-2-one]"
